Assay results from ChEMBL document CHEMBL1932918, “AChE inhibitor: a regio- and stereo-selective 1,3-dipolar cycloaddition for the synthesis of novel substituted 5,6-dimethoxy spiro[5.3']-oxindole-spiro-[6.3″]-2,3-dihydro-1H-inden-1″-one-7-(substituted aryl)-tetrahydro-1H-pyrrolo[1,2-c][1,3]thiazole” (Bioorg Med Chem Lett, 2012).

target: Acetylcholinesterase (Electrophorus electricus, UniProt O42275); assay: Inhibition of electric eel AChE using […] measured every sec for 2 mins by Ellman's method
Sequence (O42275 whole entry): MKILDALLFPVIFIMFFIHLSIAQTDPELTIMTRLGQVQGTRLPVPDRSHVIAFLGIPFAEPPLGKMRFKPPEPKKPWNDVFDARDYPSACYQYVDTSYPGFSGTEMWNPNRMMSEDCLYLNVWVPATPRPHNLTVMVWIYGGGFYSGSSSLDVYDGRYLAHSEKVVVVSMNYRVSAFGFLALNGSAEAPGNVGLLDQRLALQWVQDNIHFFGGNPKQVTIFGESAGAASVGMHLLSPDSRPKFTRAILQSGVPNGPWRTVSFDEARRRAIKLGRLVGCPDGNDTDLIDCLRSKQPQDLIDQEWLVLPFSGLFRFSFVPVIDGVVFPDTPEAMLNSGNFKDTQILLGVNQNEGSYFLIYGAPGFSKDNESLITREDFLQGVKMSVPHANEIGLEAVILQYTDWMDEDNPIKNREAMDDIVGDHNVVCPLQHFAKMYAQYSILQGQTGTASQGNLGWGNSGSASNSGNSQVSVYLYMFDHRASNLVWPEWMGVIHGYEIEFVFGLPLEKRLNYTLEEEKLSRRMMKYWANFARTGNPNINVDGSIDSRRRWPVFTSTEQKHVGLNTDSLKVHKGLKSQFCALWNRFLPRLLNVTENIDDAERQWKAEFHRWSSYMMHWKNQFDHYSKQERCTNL

Point of comparison: COc1cc2c(cc1OC)C(=O)C1(C2)C(c2ccccc2Cl)C2CSCN2C12C(=O)Nc1ccc([N+](=O)[O-])cc12 (stereo not given), IC50 2120 nM. Against it:
- COc1cc2c(cc1OC)C(=O)C1(C2)C(c2ccccc2Cl)C2CSCN2C12C(=O)Nc1ccccc12 (stereo not given) — 3.9-fold higher, 8320 nM
- COc1cc2c(cc1OC)C(=O)C1(C2)C(c2ccncc2)C2CSCN2C12C(=O)Nc1ccccc12 (stereo not given) — 4.4-fold lower, 480 nM
- COc1ccc(C2C3CSCN3C3(C(=O)Nc4ccccc43)C23Cc2cc(OC)c(OC)cc2C3=O)cc1OC (stereo not given) — 2.9-fold higher, 6200 nM
- COc1cc2c(cc1OC)C(=O)C1(C2)C(c2ccc(F)cc2)C2CSCN2C12C(=O)Nc1ccc([N+](=O)[O-])cc12 (stereo not given) — 1.8-fold lower, 1160 nM
- COc1cc2c(cc1OC)C(=O)C1(C2)C(c2ccccc2)C2CSCN2C12C(=O)Nc1ccc([N+](=O)[O-])cc12 (stereo not given) — within 1.5-fold, 3160 nM
- COc1cc2c(cc1OC)C(=O)C1(C2)C(c2ccc(F)cc2)C2CSCN2C12C(=O)Nc1ccc(Cl)cc12 (stereo not given) — within 1.5-fold, 1560 nM
- COc1cc2c(cc1OC)C(=O)C1(C2)C(c2ccccc2Cl)C2CSCN2C12C(=O)Nc1ccc(Cl)cc12 (stereo not given) — 1.5-fold higher, 3280 nM
- COc1cc2c(cc1OC)C(=O)C1(C2)C(c2ccccc2)C2CSCN2C12C(=O)Nc1ccccc12 (stereo not given) — 2.7-fold higher, 5800 nM
- COc1ccc(C2C3CSCN3C3(C(=O)Nc4ccc(Cl)cc43)C23Cc2cc(OC)c(OC)cc2C3=O)cc1OC (stereo not given) — within 1.5-fold, 2240 nM
- COc1cc2c(cc1OC)C(=O)C1(C2)C(c2ccncc2)C2CSCN2C12C(=O)Nc1ccc(Cl)cc12 (stereo not given) — 6.2-fold lower, 340 nM
- COc1cc2c(cc1OC)C(=O)C1(C2)C(c2ccncc2)C2CSCN2C12C(=O)Nc1ccc([N+](=O)[O-])cc12 (stereo not given) — 19-fold lower, 110 nM
- COc1cc2c(cc1OC)C(=O)C1(C2)C(c2ccc(F)cc2)C2CSCN2C12C(=O)Nc1ccccc12 (stereo not given) — 1.9-fold lower, 1120 nM
- COc1cc2c(cc1OC)C(=O)C1(C2)C(c2ccccc2)C2CSCN2C12C(=O)Nc1ccc(Cl)cc12 (stereo not given) — within 1.5-fold, 2600 nM
- COc1ccc(C2C3CSCN3C3(C(=O)Nc4ccc([N+](=O)[O-])cc43)C23Cc2cc(OC)c(OC)cc2C3=O)cc1OC (stereo not given) — within 1.5-fold, 2100 nM
